Consider ten molecules from patent US20140235548A1, “COMPOSITIONS AND METHODS FOR JAMM PROTEIN INHIBITION” (Cleave Biosciences, Inc., priority 2011, published 2014).

Like-named read-outs stand apart in the source and are kept apart here. Where a SMILES comes first, the peptide text is derived from it. The star is where a group is joined. Cbz = O=C(OCc1ccccc1)*

The target in assay [1] is T1, Rpn11 (Homo sapiens, UniProt O00487). As to the kind of experiment: Rpn11 fluorescence polarization assay with 26S proteasome and Ub4-peptide-Oregon Green substrate. It counts as biochemical. The text has this: As seens in FIG. 4A) the Rpn11 substrate consisted of six histidine residues followed by four ubiquitin sequences fallowed by the peptide sequence […]. The Oregon Green fluorophore was attached to the cysteine residue via maleimide chemistry. Following cleavage of the substrate by Rpn11, the product […] coupled to Oregon Green was released. The change in molecular weight of Oregon Green containing protein was detected by fluorescence polarization. The Rpn11 reaction can he inhibited with compound 1. In FIG. 4(B) progress curves for product generation by 26S proteasome (which contains Rpn11). Rpn11 cleaves the substrate immediately after the fourth ubiquitin (Ub). 5 nM Ub-Ub-Ub-Ub-peptide-oregon green substrate was incubated with 0.5 nM purified 26S proteasome for 120 min at room temperature. As labeled peptide is liberated, the fluorescence polarization diminishes. The cleavage reaction can be inhibited by the o-phenanthroline. In FIG. 4(C-E) dose-response curve for inhibition of Rpn11 by compound 1 (C), 3-hydroxy-4H-pyran-4-thione (D) or o-phenanthroline (E) were generated by adding varying doses of compound to the reaction mixture. At 120 minutes, fluorescence polarization was measured. Percent activity was calculated based on the amount of enzyme activity observed in the absence of added test agent.
An 8-point compound 001 dose titration curve was performed, by incubating Rpn11-containing 26S proteasome, Rpn11 substrate and compound (dose range 50 μM to 0.1 μM) and monitoring fluorescence polarization as per BIOEXAMPLE 4. Remaining activity as compared to DMSO control (% activity) was calculated and plotted versus compound 1 concentration and the curve was fit to a four-parameter fit model to obtain an IC50 value.
In general terms: In fluorescence polarisation assays a small probe gives low polarisation when free and higher when bound to something large.

In assay [2] the target is T2, CSN5 (Homo sapiens, UniProt Q92905). As to the kind of experiment: Csn5 fluorescence polarization assay: release of Nedd8OG from Cul1-Nedd8OG / SCF^Skp2-Nedd8OG by CSN. The assay is classed as biochemical.
Assay [3] has as its system neddylated forms of Cullins 1, 2, and 4A. Description: Accumulation of neddylated Cullins 1, 2 and 4A in HEK-293T cells (immunoblot). It counts as cell-based, human. Conditions: 15 min at 37° C. How it is done:
Test compounds include Compound 1 (“Test Compound 1”), Compound 101 (“Test Compound 2”), and MLN4924 (“Comparison Compound”; Sulfamic acid, [(1S,2S,4R)-4-[4-[[(1S)-2,3-dihydro-1H-inden-1-yl]amino]-7H-pyrrolo[2,3-d]pyrimidin-7-yl]-2-hydroxycyclopentyl]methyl ester; CAS Reg. No. 905579-51-3). Human HEK-293T cells were treated with 100 μM compound 1, 100 μM compound 101, 3 μM MLN4924 or 1% DMSO for 15 min. at 37° C. At the end of the incubation, cells were harvested and lysed. All cell lysates were fractionated by SDS-PAGE, proteins were transferred to nitrocellulose, and Cu11, Cu12 and Cu14 was detected by immunoblotting with an antibody that recognizes human Cu11, Cu12 or Cu14. Cu11-N8: human Cu11 modified with Nedd8. Cu12-N8: human Cu12 modified with Nedd8. Cu14-N8: human Cu14 modified with Nedd8.

For assay [4], the target named is T3, AMSH-LP (Homo sapiens, UniProt Q96FJ0).
T3 sequence (Q96FJ0 1-436): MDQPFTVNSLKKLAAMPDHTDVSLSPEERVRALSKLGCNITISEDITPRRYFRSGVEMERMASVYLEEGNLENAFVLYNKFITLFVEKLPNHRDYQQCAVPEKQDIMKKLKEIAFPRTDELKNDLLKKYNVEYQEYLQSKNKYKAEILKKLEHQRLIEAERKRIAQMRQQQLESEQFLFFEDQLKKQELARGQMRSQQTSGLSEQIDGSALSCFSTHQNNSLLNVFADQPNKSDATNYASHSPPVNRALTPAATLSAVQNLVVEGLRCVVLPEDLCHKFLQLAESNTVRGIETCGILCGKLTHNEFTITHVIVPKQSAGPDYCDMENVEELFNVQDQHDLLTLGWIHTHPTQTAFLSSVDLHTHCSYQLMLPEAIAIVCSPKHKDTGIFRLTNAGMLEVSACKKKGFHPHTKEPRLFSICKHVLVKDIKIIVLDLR
Description: AMSH-LP assay: di-ubiquitin K63 cleavage to mono-ubiquitin (SDS-PAGE, anti-ubiquitin blot). The assay is classed as biochemical. Conditions: AMSH-LP 50 nM, di-ubiquitin K63 1 μM, 20 hours at room temperature; read-out: approximate IC50, mono-ubiquitin product formation. The text has this:
Formation of product is dependant on the presence of AMSH-LP (lane 1).

The target of assay [5] is T2, CSN5. As to the kind of experiment: Cell-based Csn5 assay: Cul1 neddylation in HEK-293T cells (immunoblot). The arrangement: endogenous in cells; host or cells: HEK-293T. Conditions: 30 min, increasing concentration. How it is done:
Because cullins undergo a dynamic cycling between neddylated and unneddylated forms by the action of NAE1 and Csn5, respectively, a Csn5 inhibitor will block the removal of Nedd8 from cullin resulting in the accumulation of Nedd8-cullin. HEK-293T cells were treated with compound 001 for 30 min., washed with PBS and lysed in gel loading buffer. Clarified cell lysates (40 μg) were electrophoresed, transferred to nitrocellulose and immunoblotted with α-Cu11 or α-actin sera.

Assay [6] has as its target T1, Rpn11. Description: Ub^G76V-GFP proteasome reporter degradation in HeLa cells (Rpn11 activity in cells). It counts as cell-based. To be noted: cycloheximide, 90 min at 37° C., quantitative fluorescence microscopy, read-out: IC50, level of remaining Ub^G76V-GFP.
[7] abbreviates: Bioexample 16 table, read-out: RPN11 IC50.
Where [8] appears, read: Bioexample 16 table, read-out: CSN5 IC50.
Where [9] appears, read: 0.5 nM 26S proteasome, 5 nM substrate, 120 min, room temperature (FIG. 4C-E), read-out: IC50, inhibition of Rpn11.

In general, IC50 refers to the concentration that inhibits the measured activity by half. In the case of `Cc1ccc(S)c2ncccc12` [Compound 6], the IC50 in assay [1] (setting [7]) is 1100 nM; in assay [2] (setting [8]) it was 4100 nM.
Take `Sc1cccc2cccnc12` [Compound 1, 8-quinolinethiol]: in assay [3] (100 μM), the “conversion of Cu11, Cu12 and Cu14 to Nedd8-modified species” value was “largely modified with Nedd8”. In addition, the IC50 in assay [1] (setting [9]) was 3300 nM; in assay [1] (setting [7]) it was 1100 nM; in assay [4], roughly 1600 nM; in assay [2] (Cop9 signalsome, 8-point titration 100 μM to 0.05 μM, four-parameter fit (FIG. 11), read-out: IC50 on Csn5), 6500 nM; in assay [2] (purified CSN, fluorescence polarization, dose escalation (FIG. 2B), read-out: IC50, CSN release of Nedd8OG from Cu11-Nedd8OG), 3800 nM; in assay [6], 120 nM. The “shift of Cu11 between unneddylated and neddylated form” value in assay [5] is “shifts the Cu11 population from the undeddylated to the neddylated form”.
Take `Oc1coccc1=S` [3-hydroxy-4H-pyran-4-thione, reference compound]: the IC50 in assay [1] (setting [9]) was found to be 600 nM.
In the case of `NS(=O)(=O)OC[C@@H]1C[C@@H](n2ccc3c(N[C@H]4CCc5ccccc54)ncnc32)C[C@@H]1O` [MLN4924, Sulfamic acid, [(1S,2S,4R)-4-[4-[[(1S)-2,3-dihydro-1H-inden-1-yl]amino]-7H-pyrrolo[2,3-d]pyrimidin-7-yl]-2-hydroxycyclopentyl]methyl ester, reference compound], the “conversion of Cu11, Cu12 and Cu14 to Nedd8-modified species” value in assay [3] (3 μM) was “remain in the non-neddylated form”.
Regarding `CC(C)C[C@@H](C=O)NC(=O)[C@H](CC(C)C)NC(=O)[C@H](CC(C)C)NC(=O)OCc1ccccc1` [MG132, N-(benzyloxycarbonyl)leucinylleucinylleucinal] (Cbz-Leu-Leu-Leu-aldehyde), in assay [6], the IC50 stood at 230 nM.
With `Cc1ccc2cccc(S)c2n1` [Compound 3, 8-SH-2-Me-quinoline], in assay [1] (setting [7]), the IC50 was found to be 6100 nM.
Regarding `Cc1cc(S)c2ncccc2c1` [Compound 7], the IC50 in assay [1] (setting [7]) amounted to 800 nM.
Regarding `Cc1cnc2c(S)cccc2c1` [Compound 4], the IC50 in assay [1] (setting [7]) came out at 1300 nM; in assay [2] (setting [8]), 7700 nM.
For `Cc1ccnc2c(S)cccc12` [Compound 5], in that order: 2500 nM and 22200 nM.
As to `c1cnc2c(c1)ccc1cccnc12` [o-phenanthroline, reference compound], the IC50 in assay [1] (setting [9]) amounted to 158000 nM; in assay [6], 590000 nM.
